Data taken from US12576059B2, “Methods and compositions for treatment of inflammatory disease” (priority 2021, dated 2026).

Columns and labels:
[1] = system: LPS induced acute lung inflammation; assay: Example 1: LPS induced acute lung inflammation, interalveolar septa distance; format: in vivo, mice; details: for Interalveolar space (average spatial distance for the interalveolar septa): 6-week course, then single intranasal LPS
Source text: LPS administration is known to promote inflammation through various mechanisms including secretion of pro-inflammatory cytokines, eicosanoids and induction of ROS. This example employed LPS to ascertain the extent of inflammation arising from ROS induced oxidation of H-AA versus D-AA in the lungs of mice. Specifically, four groups of mice were used. The first group was control mice treated with H-LA control mice. The second group of mice received a 6-week course of D-LA. It is understood that in vivo conversion of a portion of both H-LA and D-LA occurs to provide for AA and 13,13-D2-AA respectively. The third group of mice received a 6-week course of H-AA. The fourth group of mice received a 6-week course of D-AA. All groups then received a single intranasal administration of LPS to induce acute lung inflammation. The degree of the inflammatory response was based on the interalveolar septa distance where the larger the distance of the septa, the greater the degree of inflammation. The animals were sacrificed and the interalveolar septa distance was measured. Table 1 provides an average degree of spatial distance for the interalveolar septa for the results of all groups.

[2] = system: LPS-treated mice lungs; assay: Example 5: H-LA / D2-LA by oral gavage, then intranasal LPS, lung histology; format: in vivo, BALB/c mice; details: 6 weeks of H-LA or D2-LA, then 1 mg/kg intranasal LPS, 24 hours
Description: (§1) Lung, stomach and colon samples were fixed with 4% formaldehyde (freshly prepared from paraformaldehyde), paraffin embedded and cut into 2-4 μm sections. For routine histology, all fixed tissue sections were stained with hematoxylin-eosin (H&E). All slides were evaluated at 10 fields each using a Genetic Pro Bino light microscope (A) and photographed with a digital camera (Delta Optical). Stomach and colon tissue sections were analyzed for signs of active and chronic inflammation, formation of lymph follicles, and hyperplasia of epithelial cells. The severity of lung injury was scored according to lung pathological changes, including interalveolar and perivascular hemorrhages, peri-vascular and peribronchial infiltration, perivascular edema, thickness of alveolar wall, alveolar space value, and emphysematous transformations. Lung tissue samples were additionally stained with commercially available Martius Scarlet Blue (MSB) stain kit (Avantik, USA) for fibrin visualization. The presence of homogeneous fibrin masses of yellow, pink or red color in the lung blood vessels were interpreted as thrombotic masses.
In our first experiment, we evaluated the effects of linoleic acid (LA) supplementation on interalveolar septa thickness and AS in LPS-treated mice. […]

[3] = system: LPS induced acute lung inflammation; assay: Example 2: LPS induced inflammation, H-AA versus D-AA, male and female mice; format: in vivo; details: 6-week course, then single intranasal LPS
Description: LPS administration was conducted as per Example 1 above except that four groups of mice were used. The first two groups (1 and 2) were control mice (male and female). The next two groups (3 and 4) of mice received a 6-week course of H-AA (male and female). Finally, the last two groups (5 and 6) of mice received a 6-week course of D6-AA (second group). Groups 3, 4, 5 and 6 then received a single intranasal administration of LPS to induce acute lung inflammation. The degree of the inflammatory response was determined per Example 1. Next, the height and distance of the interalveolar septa was determined to provide for the surface area of the inflammation.

[4] = system: healthy mice; details: in vivo
Description: (§2) Mouse diet was from Research Diets (New Brunswick, NJ) based on fat-free AIN-93G. Fat was added at 11.3% by weight total fat and 0.25% either normal H-AA or D-AA respectively (Table 5).
Male and Female BALB/c and C57BL/6 mice were provided with standard environmental conditions i.e., 22±1° C., 55±5% humidity and 12 h light/dark cycle with free food and water access. At the age of six weeks, animals were split into 8 groups (n=160 total, 20 of each gender) and were continuously fed ad libitum on the diet containing either H-AA or D-AA for 2, 4, 6 or 8 weeks at the daily rate of ca. 5 g of diet per mouse for the duration of the study. The other two groups of animals (n=40, 20 of each gender) received neither PUFA-enriched diets nor LPS served as controls. The body weight and food intake were measured once a week. After completing the appropriate diet course, half of the mice in each group (10 females and 10 males) (i) underwent the procedure of bronchoalveolar lavage (BAL) to accomplish cytological smears, (ii) were subjected to tissue harvesting and collection of colon contents (after humane euthanasia with lethal dose of sodium thiopental, 100 mg/kg intravenously). On the ninth week of this diet course, the other half of the group was administered 1 mg/kg of intranasal (IN) LPS from Escherichia coli O111:B4 (Sigma Aldrich) 24 hours prior to BAL and subsequent euthanasia. 40 D-AA fed animals (20 males, 20 females) were switched to the H-AA diet for washout experiments. […]
as §1, with “masses. […]” for “masses.”
Cell free BAL fluid supernatants as well as colon tissue samples were analyzed using commercially available Mouse IL-1B ELISA Kit (R&D systems, Lot P265854, USA) and the Biotek ELx-808 microplate reader (Biotek, USA) according to the instructions recommended by the manufacturer).

[5] = system: LPS-induced acute lung injury; assay: Example 5: response to intranasal LPS in mice fed AA diets (ALI model); format: in vivo, BALB/c and C57BL/6 mice
Description: as §2
Male and Female BALB/c and C57BL/6 mice were provided with standard environmental conditions i.e., 22±1° C., 55±5% humidity and 12 h light/dark cycle with free food and water access. At the age of six weeks, animals were split into 8 groups (n=160 total, 20 of each gender) and were continuously fed ad libitum on the diet containing either H-AA or D-AA for 2, 4, 6 or 8 weeks at the daily rate of ca. 5 g of diet per mouse for the duration of the study. The other two groups of animals (n=40, 20 of each gender) received neither PUFA-enriched diets nor LPS served as controls. The body weight and food intake were measured once a week. After completing the appropriate diet course, half of the mice in each group (10 females and 10 males) (i) underwent the procedure of bronchoalveolar lavage (BAL) to accomplish cytological smears, (ii) were subjected to tissue harvesting and collection of colon contents (after humane euthanasia with lethal dose of sodium thiopental, 100 mg/kg intravenously). On the ninth week of this diet course, the other half of the group was administered 1 mg/kg of intranasal (IN) LPS from Escherichia coli O111:B4 (Sigma Aldrich) 24 hours prior to BAL and subsequent euthanasia. 40 D-AA fed animals (20 males, 20 females) were switched to the H-AA diet for washout experiments.
Cell differential counts were performed on smear slides from resuspended cell pellets of BAL, using commercially available May-Grünwald-Giemsa staining kits. All slides were evaluated in a light microscope (Optec BK5000) at ×200 magnification. These cell counts such as lymphocytes, neutrophils, plasmacytes and macrophages were obtained from 10 fields of each slide.
as §1
We challenged mice fed AA-diets for 6 weeks using LPS treatment. […] Perivascular edema, signs of thrombosis, alveolar wall thickening, irregular distribution of air spaces, and focal areas of alveolar hemorrhage were also observed. We preferred intranasal administration to the more extreme intratracheal route that induces IL-1β which in turn amplifies inflammation making it difficult to distinguish between the early and late consequences of the LPS challenge. Indeed, 24 hours after intranasal administration of LPS at a dose of 1 mg/kg, there was no significant increase in the IL-1B content in BAL fluid or colon homogenates compared to animals not treated with LPS regardless of type or duration of the diets. Intranasal LPS 24 hours post administration increased neutrophils in BAL fluid in all treated groups regardless of gender or form of AA diets.

[6] = human, in vivo, po; cited from earlier work

CCCCC/C=C\C/C=C\CCCCCCCC(=O)O [H-LA, linoleic acid]
Interalveolar space (average spatial distance for the interalveolar septa) [1]: 14.2 μm | alveolar wall / interalveolar septum thickness (in words) [2]: significantly higher

CCCCC/C=C\C/C=C\C/C=C\C/C=C\CCCC(=O)O [H-AA, arachidonic acid, reference compound]
Interalveolar space (average spatial distance for the interalveolar septa) [1]: 9.1 μm | Interalveolar space ([3]; female mice): ~9.7 μm | Interalveolar surface area ([3]; female mice): ~380 μm^2 | Interalveolar space ([3]; male mice): ~8.1 μm | Interalveolar surface area ([3]; male mice): ~540 μm^2 | alveolar wall thickness, H-AA versus D-AA cohorts ([4]; both, BALB/c and C57BL/6, mouse, 8 weeks): significantly (p≤0.05) thicker | alveolar spaces ([4]; mouse): No relevant changes | average thickness of interalveolar septa, H-AA versus D-AA ([4]; mouse): did not significantly differ | tolerability ([4]; mouse): well tolerated without apparent adverse reactions | LPS-induced interalveolar septa / wall thickening (in words) ([5]; 6-week diet, then single intranasal LPS): significantly increased | LPS-induced lung tissue damage, inflammation and emphysema (in words) ([5]; dietary consumption prior to LPS exposure): did not improve and even aggravated

[2H]C([2H])(/C=C\CCCCC)/C=C\CCCCCCCC(=O)O [D-LA, 11,11-D2-Linoleic Acid]
Interalveolar space (average spatial distance for the interalveolar septa) [1]: 10.7 μm | reduction in the spatial distance for the interalveolar septa ([1]; D-LA relative to H-LA, comparator for D-AA not stated): ~25% | alveolar wall / interalveolar septum thickness (in words) [2]: small, but statistically significant decrease | safety record [6]: impressive safety record
